Blank lines part the entries; values can stand above or below the compound they belong to.
Tests used:
[1] = target: T1, human GPR142 (Homo sapiens, UniProt Q7Z601); test: IP-1 accumulation assay in HEK293 cells stably expressing human GPR142; assay type: cell-based; conditions: for HEK293-hGPR142 EC50 (Emax): activity call, tested 170 nM to 30 mM; for Emax: HEK293, relative efficacy normalized to maximal response of L-Tryptophan (100%), read-out: HEK293-hGPR142 Emax; for EC50: IP-1 accumulation, 1 hour, 170 nM to 30 mM, read-out: HEK293-hGPR142 EC50; for IP-1 accumulation in HEK-hGPR142 cells: Fig 1A, 1B
T1 construct: expressed in transfected cells
T1 sequence (Q7Z601 1-374 isoform Q7Z601-2): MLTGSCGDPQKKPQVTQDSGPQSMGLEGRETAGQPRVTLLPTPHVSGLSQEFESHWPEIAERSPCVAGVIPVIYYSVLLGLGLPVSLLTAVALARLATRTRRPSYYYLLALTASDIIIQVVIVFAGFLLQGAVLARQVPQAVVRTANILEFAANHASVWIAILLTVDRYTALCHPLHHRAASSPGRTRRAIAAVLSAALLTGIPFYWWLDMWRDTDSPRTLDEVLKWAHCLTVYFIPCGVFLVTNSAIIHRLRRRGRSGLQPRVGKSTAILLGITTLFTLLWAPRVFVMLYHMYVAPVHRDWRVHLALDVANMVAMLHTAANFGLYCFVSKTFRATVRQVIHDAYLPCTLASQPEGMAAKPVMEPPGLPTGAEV
Procedure: (§1) HEK293 cells obtained from ATCC were used to generate cell lines stably expressing human GPR142 or mouse Gpr142 by transfecting cells with pcDNA3.1 expression vectors containing each cDNA. Cells expanded from single clones were maintained in DMEM containing 10% fetal bovine serum (FBS) and 800 μg/ml G418. Untransfected control HEK293 cells were maintained in DMEM containing 10% FBS. Cells were plated in 384 well plates at 5000 cells per well and allowed 18 hours for attachment. After addition of compounds, cells were incubated for 1 hour. IP-1 measurements were performed using an HTRF assay kit (Cisbio) according to manufacturer’s protocol using assay buffer containing 1 × HBSS (Hank’s Balanced Salt Solution, +Ca, +Mg), 0.1% bovine serum albumin (BSA), 50 mM LiCl and 20 mM HEPES (4-(2-hydroxyethyl)-1-piperazineethanesulfonic acid), pH 7.2. The reaction was stopped by addition of IP1-d2 followed by cryptate solution and the plates were incubated at 25°C for 1 hour. Fluorescence was read in an Envision instrument at 665 nm and 620 nm. The ratio of 665 nm/620 nm was calculated and converted to IP-1 levels using a standard curve method. The data was fit to 4-parameter fit logistics to determine EC50 values.

[2] = Glucose tolerance test (IPGTT/OGTT) after oral dosing in mice; assay type: in vivo, mouse; conditions: for glucose excursion during IPGTT in Gpr142 KO mice / glucose excursion during IPGTT in WT mice: 500 mg/kg p.o. 15 minutes prior to glucose 2 g/kg i.p.
Procedure: (§2) Mice were fasted overnight and allowed free access to water. […] Tail blood glucose levels were measured at indicated time points using handheld glucometers. For incretin hormone measurements, blood was collected via cardiac bleeds into EDTA-tubes containing DPP-4 inhibitor (Millipore) and protease inhibitor cocktail (Thermo Fisher). For insulin measurements during GTT, blood was collected from the tail.

[3] = test system: murine pancreatic islets; test: Insulin secretion in isolated murine pancreatic islets (WT and Gpr142 KO); assay type: cell-based, mouse; conditions: 11.1 mM glucose, 1 hour
Procedure: Secretion was stopped by refrigerating the plates at 4°C for 3 minutes. Supernatant was removed from the wells and assayed for insulin levels using the MA6000 Mouse/Rat Insulin Kit (Meso Scale Discovery).

[4] = target: T2, mouse GPR142 (Mus musculus, UniProt Q7TQN9); test: IP-1 accumulation assay in HEK293 cells stably expressing mouse Gpr142; assay type: cell-based; conditions: for Emax: HEK293, relative efficacy normalized to maximal response of L-Tryptophan (100%), read-out: HEK293-mGPR142 Emax; for EC50: IP-1 accumulation, 1 hour, 170 nM to 30 mM, read-out: HEK293-mGPR142 EC50
T2 sequence (Q7TQN9 67-365 limits assumed): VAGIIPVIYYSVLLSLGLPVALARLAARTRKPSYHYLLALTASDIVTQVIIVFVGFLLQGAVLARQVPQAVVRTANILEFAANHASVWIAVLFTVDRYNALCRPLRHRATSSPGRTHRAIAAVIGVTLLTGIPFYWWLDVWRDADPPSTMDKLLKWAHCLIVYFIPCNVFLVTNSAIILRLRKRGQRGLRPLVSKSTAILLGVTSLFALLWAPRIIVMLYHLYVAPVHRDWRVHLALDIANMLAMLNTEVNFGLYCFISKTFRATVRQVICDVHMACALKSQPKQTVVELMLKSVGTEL
Procedure: as §1

[5] = Plasma insulin and incretin hormone levels after oral dosing in mice; assay type: in vivo, mouse; conditions: for GIP release in Gpr142 KO mice / insulin release in Gpr142 KO mice / plasma GLP-1 in Gpr142 KO mice: 500 mg/kg p.o., 10 minutes after dosing, vs WT
Procedure: as §2
Immunoassays were used to measure total GIP (Millipore, ELISA), total GLP-1, and insulin (Meso Scale Discovery). Enzymatic assays were used to measure TG, beta-hydroxybutarate (Sigma-Aldrich), and total cholesterol (Thermo Fisher). HDL-cholesterol was determined in the supernatant after removal of LDL/vLDL-cholesterol by a precipitation reagent (Sigma-Aldrich); non-HDL-cholesterol was determined by subtracting HDL from total cholesterol. Free fatty acids were measured by GC-MS.

[6] = test system: human pancreatic islets; test: Insulin secretion in isolated human pancreatic islets; assay type: cell-based; conditions: 11 mM glucose, 1 hour, non-diabetic donor
Excerpt: Human pancreatic islets were purchased from Prodo Labs at the Scharp-Lacy Research Institute (Irvine, CA, www.prodolabs.com) through the Integrated Islet Distribution Program in accordance with internal review board (IRB) ethical guidelines for use of human tissue. Islets were isolated at Prodo Labs from human pancreata from listed cadaver organ donors that were refused for primary human pancreas transplantation or isolated islets transplantion into listed diabetic recipients. […] The next day day islets were incubated for 30 min in EBSS buffer containing 0.1% BSA and 3 mM glucose. […] Islets were cultured for 60 min at 37°C. The incubation was stopped by chilling the samples on ice. The culture media was removed and stored at -20°C until its insulin concentration was measured. Insulin was measured using a custom built immunoassay (Meso Scale Discovery).

[7] = test system: untransfected control HEK293 cells; test: IP-1 accumulation in untransfected control HEK293 cells; assay type: cell-based; conditions: Fig 1B
Procedure: as §1

[8] = test system: Free Fatty Acid Receptor 1 (FFAR1, GPR40); parameters: method as in PMID 21752941; conditions: preclinical models; cited from earlier work
[9] = parameters: method as in PMID 25787200; conditions: humans, phase III study; cited from earlier work
[10] = 500 mg/kg p.o. 15 minutes prior to glucose 2 g/kg p.o.
[11] = 150 or 500 mg/kg p.o., overnight fasted normal C57 male mice

HEK293-hGPR142 EC50 (Emax) [1]: Inactive
Compound: CSCC[C@H](N)C(=O)O [L-Methionine]

HEK293-hGPR142 EC50 (Emax) [1]: Inactive
Compound: NC(=O)CC[C@H](N)C(=O)O [L-Glutamine]

HEK293-hGPR142 EC50 (Emax) [1]: Inactive
Compound: N[C@@H](CS)C(=O)O [L-Cysteine]

HEK293-hGPR142 EC50 (Emax) [1]: Inactive
Compound: NC(=O)C[C@H](N)C(=O)O [L-Asparagine]

Emax [1]: 41%
EC50 [1]: > 20 mM
Compound: N[C@@H](CC(=O)O)C(=O)O [L-Aspartic Acid]

More lines, now with the values behind:

Compound: NCCc1c[nH]c2ccccc12 [Trytamine]
HEK293-hGPR142 EC50 (Emax) [1]: Inactive

Compound: Nc1ccccc1C(=O)C[C@H](N)C(=O)O [L-Kynurenine]
Emax [1]: 18%
EC50 [1]: 12 mM

Compound: N[C@@H](Cc1ccccc1)C(=O)O [L-Phenylalanine]
glucose excursion during IPGTT in Gpr142 KO mice [2]: clearly present
glucose excursion during IPGTT in WT mice [2]: clearly present
insulin secretion in Gpr142 KO islets compared with WT islets [3]: not significantly different
insulin secretion in WT murine islets [3]: more modest
IP-1 accumulation in HEK-hGPR142 cells [1]: has an effect in this assay at concentrations comparable to that of L-Trp
Emax [1]: 96%
EC50 [1]: 3.5 mM
Emax [4]: 92%
potency on mouse GPR142 relative to L-Trp (fold less potent) ([4]; HEK293 cell-based IP-1 assay): 4 to 5 fold
EC50 [4]: 2.8 mM
GIP release in Gpr142 KO mice [5]: blunted
insulin release in Gpr142 KO mice [5]: blunted
plasma GLP-1 in Gpr142 KO mice [5]: increased GLP-1 in KO mice to a similar extent as in WT

Compound: N[C@@H](Cc1c[nH]c2ccccc12)C(=O)O [L-Tryptophan]
glucose excursion during IPGTT in Gpr142 KO mice [2]: no significant effect
glucose excursion during IPGTT in WT mice [2]: suppressed glucose excursion
glucose excursion during OGTT in Gpr142 KO mice [2, 10]: no significant effect
glucose excursion during OGTT in WT mice [2, 10]: suppressed glucose excursion
insulin secretion in Gpr142 KO islets compared with WT islets [3]: significantly blunted
insulin secretion in WT murine islets [3]: dose-dependently stimulated the release of insulin
insulin secretion in human primary islets [6]: robustly stimulated insulin secretion
IP-1 accumulation in HEK-hGPR142 cells [1]: stimulated IP-1 accumulation
Emax [1]: 100%
EC50 [1]: 2.1 mM
IP-1 accumulation in HEK-mGPR142 cells [4]: stimulated IP-1 accumulation
Emax [4]: 100%
EC50 [4]: 0.62 mM
GIP release in Gpr142 KO mice [5]: no L-Trp-dependent release
insulin release in Gpr142 KO mice [5]: no L-Trp-dependent release
plasma GLP-1 in Gpr142 KO mice [5]: increased GLP-1 in KO mice to a similar extent as in WT
time of peak plasma insulin, GIP and GLP-1 concentrations after dosing ([5]; 150 or 500 mg/kg p.o., normal C57 male mice): 5 to 10 min
plasma GIP level [5, 11]: rapidly and dose-dependently increased
plasma GLP-1 level [5, 11]: rapidly and dose-dependently increased
plasma insulin level [5, 11]: rapidly and dose-dependently increased
IP-1 accumulation in untransfected control HEK293 cells [7]: had no effect

Compound: CC[C@H](C)[C@H](N)C(=O)O [L-Isoleucine]
HEK293-hGPR142 EC50 (Emax) [1]: Inactive

Compound: Cc1cc(OCCCS(C)(=O)=O)cc(C)c1-c1cccc(COc2ccc3c(c2)OC[C@H]3CC(=O)O)c1 [TAK-875]
glucose-dependent insulin secretion [8]: stimulate glucose-dependent insulin secretion
glycemic control [9]: improve glycemic control

Compound: N[C@H](Cc1c[nH]c2ccccc12)C(=O)O [D-Tryptophan]
Emax [1]: 29%
EC50 [1]: 3.5 mM
significant activation of GPR142 signaling at concentrations below 10 mM ([1]; Table 1): None

Compound: NCC(=O)O [Glycine]
HEK293-hGPR142 EC50 (Emax) [1]: Inactive
